Measured values taken from the NIST ThermoML archive (doi:10.1021/je034084d).
Numbers after ± are expanded uncertainties.

Conditions: for vapor or sublimation pressure: Liquid; for molar volume: Gas, isochoric method

FC(C(F)(F)F)C(F)(F)F [1,1,1,2,3,3,3-heptafluoropropane]
Conditions | vapor or sublimation pressure [kPa]
235.07 K | 35.5 ± 1.1
240.23 K | 46.5 ± 1.1
245.31 K | 59.9 ± 1.1
250.44 K | 76.3 ± 1.1
255.11 K | 94.1 ± 1.1
260.28 K | 117.5 ± 1.1
265.66 K | 146.4 ± 1.1
270.55 K | 177.2 ± 1.1
275.23 K | 211.1 ± 1.1
280.19 K | 252.4 ± 1.1
285.44 K | 302.4 ± 1.2
290.14 K | 353.3 ± 1.2
295.27 K | 416.1 ± 1.2
300.24 K | 484.6 ± 1.2
305.29 K | 562.6 ± 1.3
310.37 K | 650.5 ± 1.3
315.41 K | 747.3 ± 1.3
320.07 K | 845.9 ± 1.4
325.19 K | 965.7 ± 1.4
329.97 K | 1088.3 ± 1.5
335.04 K | 1230.8 ± 1.6
339.99 K | 1383 ± 1.6
345.15 K | 1556.8 ± 1.7
350.26 K | 1744.7 ± 1.8
355.11 K | 1939 ± 1.9
360.18 K | 2159.7 ± 2
365.27 K | 2401.5 ± 2.1

Conditions | molar volume [m3/mol]
293.37 K, 214.8 kPa | 0.0106 ± 5e-06
298.02 K, 297.6 kPa | 0.007594 ± 3e-06
298.06 K, 219 kPa | 0.0106 ± 5e-06
298.58 K, 387 kPa | 0.00567 ± 2e-06
303.22 K, 304.1 kPa | 0.007596 ± 3e-06
303.42 K, 223.7 kPa | 0.0106 ± 5e-06
303.52 K, 484.7 kPa | 0.004479 ± 2e-06
303.65 K, 395.8 kPa | 0.005671 ± 2e-06
308.37 K, 228 kPa | 0.0106 ± 5e-06
308.57 K, 310.7 kPa | 0.007598 ± 3e-06
308.57 K, 562.5 kPa | 0.003857 ± 2e-06
308.67 K, 496.4 kPa | 0.00448 ± 2e-06
308.69 K, 404.7 kPa | 0.005672 ± 2e-06
313.63 K, 507.6 kPa | 0.004481 ± 2e-06
313.69 K, 413.2 kPa | 0.005673 ± 2e-06
314.14 K, 232.7 kPa | 0.01061 ± 5e-06
314.16 K, 317.9 kPa | 0.0076 ± 3e-06
314.22 K, 577.9 kPa | 0.003858 ± 2e-06
318.62 K, 518.9 kPa | 0.004482 ± 2e-06
318.66 K, 421.6 kPa | 0.005675 ± 2e-06
319.44 K, 237.1 kPa | 0.01061 ± 5e-06
319.6 K, 324.5 kPa | 0.007601 ± 3e-06
319.97 K, 593.4 kPa | 0.003859 ± 2e-06
323.74 K, 530.4 kPa | 0.004483 ± 2e-06
323.82 K, 430.2 kPa | 0.005676 ± 2e-06
324.15 K, 241.1 kPa | 0.01061 ± 5e-06
324.21 K, 329.9 kPa | 0.007603 ± 3e-06
324.39 K, 605.1 kPa | 0.003859 ± 2e-06
328.01 K, 244.4 kPa | 0.01061 ± 5e-06
328.19 K, 334.6 kPa | 0.007604 ± 3e-06
328.2 K, 614.9 kPa | 0.00386 ± 2e-06
328.46 K, 540.6 kPa | 0.004484 ± 2e-06
328.9 K, 438.8 kPa | 0.005677 ± 2e-06
333.39 K, 248.8 kPa | 0.01062 ± 5e-06
333.4 K, 551.4 kPa | 0.004485 ± 2e-06
333.62 K, 341.1 kPa | 0.007606 ± 3e-06
333.92 K, 629.9 kPa | 0.003861 ± 2e-06
334.02 K, 447.3 kPa | 0.005679 ± 2e-06
338.69 K, 642 kPa | 0.003862 ± 2e-06
338.92 K, 253.5 kPa | 0.01062 ± 5e-06
338.96 K, 347.5 kPa | 0.007608 ± 3e-06
338.96 K, 563.3 kPa | 0.004486 ± 2e-06
339.15 K, 455.7 kPa | 0.00568 ± 2e-06
343.8 K, 257.7 kPa | 0.01062 ± 5e-06
343.94 K, 655.2 kPa | 0.003863 ± 2e-06
343.99 K, 353.6 kPa | 0.00761 ± 3e-06
344.11 K, 574.3 kPa | 0.004487 ± 2e-06
344.27 K, 464.1 kPa | 0.005681 ± 2e-06
348.97 K, 359.5 kPa | 0.007611 ± 3e-06
349.04 K, 261.8 kPa | 0.01062 ± 5e-06
349.14 K, 668.4 kPa | 0.003864 ± 2e-06
349.17 K, 585 kPa | 0.004488 ± 2e-06
349.21 K, 472.1 kPa | 0.005682 ± 2e-06
353.32 K, 364.5 kPa | 0.007613 ± 3e-06
353.39 K, 679.1 kPa | 0.003864 ± 2e-06
353.64 K, 265.6 kPa | 0.01063 ± 5e-06
354.39 K, 596 kPa | 0.004489 ± 2e-06
354.73 K, 481 kPa | 0.005684 ± 2e-06
